Reference: paper PMC6800369 (Proceedings of the National Academy of Sciences of the …, 2019)
Each block holds one compound with its values, some of them ahead of it.

Assays:
PRK = target: T1, PRK (Thermosynechococcus vestitus, UniProt Q8DHN2); assay: ADP production, coupled assay with ADP-hexokinase; type: biochemical; details: ternary complex reduced with DTT
T1 sequence (Q8DHN2 1-334): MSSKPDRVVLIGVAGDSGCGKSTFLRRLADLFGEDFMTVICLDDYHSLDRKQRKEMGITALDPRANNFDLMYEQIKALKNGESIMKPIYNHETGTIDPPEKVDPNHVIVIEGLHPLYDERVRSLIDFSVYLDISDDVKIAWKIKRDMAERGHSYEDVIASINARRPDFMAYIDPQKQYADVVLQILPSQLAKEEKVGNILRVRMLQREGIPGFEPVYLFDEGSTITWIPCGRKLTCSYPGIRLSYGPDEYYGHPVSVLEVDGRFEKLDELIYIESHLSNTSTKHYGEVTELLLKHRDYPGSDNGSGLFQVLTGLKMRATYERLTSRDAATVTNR

GAPDH = target: T2, GAPDH (Thermosynechococcus vestitus, UniProt Q8DIW5); assay: X-ray crystal structure; type: binding
T2 sequence (Q8DIW5 1-337): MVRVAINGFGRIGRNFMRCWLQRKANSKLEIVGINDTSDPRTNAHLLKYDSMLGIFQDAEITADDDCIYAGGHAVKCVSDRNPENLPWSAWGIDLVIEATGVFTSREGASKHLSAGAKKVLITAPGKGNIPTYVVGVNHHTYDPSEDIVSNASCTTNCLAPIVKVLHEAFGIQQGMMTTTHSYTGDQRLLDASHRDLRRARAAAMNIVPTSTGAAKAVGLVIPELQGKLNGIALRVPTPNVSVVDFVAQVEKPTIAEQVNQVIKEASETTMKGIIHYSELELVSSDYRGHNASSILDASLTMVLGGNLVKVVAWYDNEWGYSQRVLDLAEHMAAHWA

GAPDH-CP12 = target: T3, GAPDH-CP12 (Thermosynechococcus vestitus, UniProt Q8DIW5); assay: X-ray crystal structure; type: binding; details: proximal (CP12-occupied) and distal sites
T3 sequence (Q8DIW5 1-337): T2 sequence (Q8DIW5 1-337)
T3 sequence (Q8DHX3 1-75 partner): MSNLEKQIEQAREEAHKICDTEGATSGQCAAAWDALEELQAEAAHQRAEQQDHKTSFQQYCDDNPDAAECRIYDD

SMILES: Nc1ncnc2c1ncn2[C@@H]1O[C@H](COP(=O)(O)OP(=O)(O)OP(=O)(O)O)[C@@H](O)[C@H]1O [ATP]
- ADP production, coupled assay with ADP-hexokinase (PRK; co-substrate ribulose 5-phosphate): measuring ADP production from ATP and ribulose 5-phosphate (Ru5P)

SMILES: NC(=O)c1ccc[n+]([C@@H]2O[C@H](COP(=O)(O)OP(=O)(O)OC[C@H]3O[C@@H](n4cnc5c(N)ncnc54)[C@H](OP(=O)(O)O)[C@@H]3O)[C@@H](O)[C@H]2O)c1 [NADP^+]
- X-ray crystal structure (GAPDH; NAD+ exchanged for NADP+ by turnover): this could be exchanged for NADP^+ by turning over the enzyme

- X-ray crystal structure (GAPDH; NAD+ bound from E. coli expression): GAPDH-NAD^+, GAPDH-NADP^+
SMILES: NC(=O)c1ccc[n+]([C@@H]2O[C@H](COP(=O)(O)OP(=O)(O)OC[C@H]3O[C@@H](n4cnc5c(N)ncnc54)[C@H](O)[C@@H]3O)[C@@H](O)[C@H]2O)c1 [NAD^+]
- X-ray crystal structure (GAPDH-CP12): The CP12-bound (proximal) site makes extensive contacts with both NAD^+ and GAPDH

SMILES: O=C(CO)[C@H](O)[C@H](O)COP(=O)(O)O [ribulose 5-phosphate]
- ADP production, coupled assay with ADP-hexokinase (PRK; co-substrate ATP): measuring ADP production from ATP and ribulose 5-phosphate (Ru5P)
